Blank lines part the entries; values can stand above or below the molecule they belong to.
What was measured:
[1] = test system: primary human bronchial smooth muscle cells; assay: CXCL10 expression with combinations of TNF-α, IL-27 and fluticasone (bDNA assay); assay type: cell-based; conditions: for CXCL10 expression, factor alone: single factor alone (5 ng/ml TNF-α; 1 μg/ml linked IL-27; IFN-γ), FIG. 4
Description: Primary human bronchial smooth muscle cells were cultured in the presence of 5 ng/ml TNF-αalone, 5 ng/ml TNF-α and 25 nM fluticasone; 1 μg/ml linked IL-27; 5 ng/ml TNF-α and 30 ng/ml IL-27; or 5 ng/ml TNF-α, 25 nM fluticasone, and 30 ng/ml IL-27. CXCL10 expression was determined by bDNA assay.

[2] = test system: primary bronchial smooth muscle cells (BSMCs); assay: WSX-1 expression in bronchial smooth muscle cells treated with factors (quantitative RT-PCR); assay type: cell-based, human; conditions: 5 ng/ml TNF-α; FIG. 7
Description: The effect of various factors on WSX-1 expression was then determined in primary bronchial smooth muscle cells (BSMCs). The BSMCs were treated with 5 ng/ml TNF-α, 10 ng/ml IFN-γ, 5 ng/ml TNF-α and 10 ng/ml IFN-γ, or 5 ng/ml TNF-α and 10 ng/ml IFN-γ and 25 nM fluticasone. WSX-1 expression was determined by quantitative RT-PCR and normalized to RPL19.

[3] = test system: primary human bronchial smooth muscle cells; assay: CXCL10 expression with TNF-α, fluticasone and IL-12 family cytokine supernatants (bDNA assay); assay type: cell-based; conditions: 5 ng/ml TNF-α, 25 nM fluticasone, 293T supernatant; FIG. 5
Description: Primary human bronchial smooth muscle cells were cultured in the presence of 5 ng/ml TNF-α, 25 nM fluticasone, and a supernatant from 293T cells expressing IL-27 subunit EBI3 alone, IL-27 subunit p28 alone, IL-12 (comprised of p35 and p40), IL-35 (comprised of p35 and EBI3), IL-23 (comprised of p19 and p40), or IL-27 (comprised of p28 and EBI3). CXCL10 expression was determined by bDNA assay.

[4] = test system: primary human bronchial smooth muscle cells; assay: Dose dependence of IL-27-induced steroid insensitivity (CXCL10/CD38 bDNA assay); assay type: cell-based; conditions: 5 ng/ml TNF-α, 25 nM fluticasone
Description: Primary human bronchial smooth muscle cells were cultured in the presence of 5 ng/ml TNF-α, 25 nM fluticasone, and increasing concentrations of linked IL-27 (Cat. No. 2526-IL; R&D Systems, Minneapolis, Minn.). CXCL10 and CD38 expression levels were determined by bDNA assay.

[5] = test system: primary human bronchial smooth muscle cells; assay: Screen for factors inducing steroid resistance: CXCL10 and CD38 expression (bDNA) in bronchial smooth muscle cells with TNF-α and fluticasone; assay type: cell-based; conditions: 5 ng/ml TNF-α, 25 nM fluticasone
Description: In order to identify factors that induce a steroid-resistant state, an assay was set up as follows. Primary human bronchial smooth muscle cells were cultured in the presence of 5 ng/ml TNF-α and 25 nM fluticasone and a test substance. Steroid sensitivity was determined by detecting expression levels of CXCL10 (IP-10) and CD38 using a bDNA assay (QuantiGene® Plex 2.0; Panomics, Santa Clara, Calif.). Expression of each of those genes is suppressed by steroids, such as fluticasone. If a factor induces a steroid-insensitive state, expression of those genes should increase. Interferon family proteins were included as test substances as positive controls.
Using this assay, a library of over 4000 secreted and extracellular domain protein test substances were screened to identify test substances that induce a steroid-resistant state. The test substances were individually expressed in 293T cells and the cell supernatants used to test each substance in the assay.

[6] = test system: primary human bronchial epithelial cells; assay: CXCL9 (MIG) / CXCL10 induction in air-liquid interface bronchial epithelial cells (ELISA); assay type: cell-based; conditions: normal donor; with and without 25 nM fluticasone; FIG. 9
[7] = biological target: T1, human IL-27 (Homo sapiens, UniProt Q14213+Q8NEV9); assay: Inhibition of IL-27-induced CXCL10 expression in bronchial smooth muscle cells (ELISA); assay type: cell-based; conditions: 0.2 to 20 μg/mL preincubated with 5 ng/mL linked or native human IL-27 and 5 ng/mL TNF-α; FIG. 11
T1 construct: made in house
T1 sequence (Q8NEV9 29-243): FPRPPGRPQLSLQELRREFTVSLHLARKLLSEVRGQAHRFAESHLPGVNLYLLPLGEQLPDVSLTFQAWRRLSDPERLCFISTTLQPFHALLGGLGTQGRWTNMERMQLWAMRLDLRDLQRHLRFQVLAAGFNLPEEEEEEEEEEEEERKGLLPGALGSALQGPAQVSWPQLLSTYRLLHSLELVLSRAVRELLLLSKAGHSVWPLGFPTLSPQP
T1 sequence (Q14213 21-229): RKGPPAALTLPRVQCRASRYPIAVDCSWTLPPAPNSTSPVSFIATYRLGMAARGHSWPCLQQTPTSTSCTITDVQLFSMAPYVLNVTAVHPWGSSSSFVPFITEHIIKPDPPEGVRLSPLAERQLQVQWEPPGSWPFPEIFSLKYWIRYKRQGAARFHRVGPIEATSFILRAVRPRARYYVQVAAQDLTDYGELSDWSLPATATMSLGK
Description: Various concentrations of an IL-27 antagonist, WSX-1 ECD (0.2 to 20 μg/mL), were preincubated with 5 ng/mL of human IL-27 in the presence of 5 ng/mL of human TNF-α. Both linked and native human IL-27 were tested. Human linked IL-27 was obtained from R&D Systems and is produced with a linker between the p28 subunit and the EBI3 subunit. Native IL-27 was produced and purified in house by transfecting mammalian cells with separate vectors expressing each subunit and purifying the resulting p28/EBI3 (IL-27) heterodimer from the cell culture supernatant. Following the preincubation of WSX-1 ECD with IL-27 and TNF-α, the stimulus was added to primary human bronchial smooth muscle cells in culture. CXCL10 expression was determined by ELISA.
Various concentrations of a polyclonal antibody against human IL-27 (0.4 to 50 μg/mL; R&D Systems) were preincubated with 10 ng/mL of native human IL-27 in the presence of 5 ng/mL of human TNF-α. Following the preincubation of polyclonal antibody with IL-27 and TNF-α, the stimulus was added to primary human bronchial smooth muscle cells in culture. CXCL10 expression was determined by ELISA.

Molecule: C[C@@H]1C[C@H]2[C@@H]3C[C@H](F)C4=CC(=O)C=C[C@]4(C)[C@@]3(F)[C@@H](O)C[C@]2(C)[C@@]1(O)C(=O)SCF [fluticasone, reference compound]
- effect on CXCL10 expression induced by IL-27 and TNF-α ([1]; 5 ng/ml TNF-α, 25 nM fluticasone, 30 ng/ml IL-27): no effect

Molecule: IFN-γ: interferon family protein, positive control in the screen
- CXCL10 expression, factor alone [1]: did not induce CXCL10 expression

Molecule: TNF-α
- WSX-1 expression normalized to RPL19 [2]: up-regulated
- CXCL10 expression, factor alone [1]: increased expression of CXCL10

- EC50 ([4]; linked IL-27, FIG. 3, read-out: EC50 for CXCL10 expression in the presence of fluticasone): 0.372 nM
Molecule: IL-27: heterodimeric cytokine comprising the subunits p28 and EBI3; linked IL-27 from R&D Systems (Cat. No. 2526-IL)
- synergistic increase of CXCL10 expression in the presence of TNF-α and fluticasone [3]: synergistically increased CXCL10 expression
- steroid insensitivity (CXCL10 expression in the presence of fluticasone) ([4]; increasing concentrations of linked IL-27): induced steroid-insensitivity in a dose-dependent manner
- expression of CD38 ([4]; increasing concentrations of linked IL-27, data not shown): increased with increasing concentration
- fold-change in CXCL10 expression (screen) ([5]; 293T supernatant of test substance, FIG. 1): positive data points
- effect on CD38 expression (two retests) ([5]; FIG. 2): positive data points
- steroid sensitivity of IL-27 induction of CXCL10 expression [6]: steroid-insensitive at all concentrations of IL-27
- CXCL10 expression, in combination with TNF-α ([1]; 5 ng/ml TNF-α and 30 ng/ml IL-27): very high CXCL10 expression
- CXCL10 expression, factor alone [1]: did not affect expression of CXCL10

B1: WSX-1 ECD: IL-27 antagonist; WSX-1 polypeptide that lacks the intracellular and transmembrane domains (protein, UniProt Q6UWB1 33-516, looked up)
extracellular domain: QGSAGPLQCYGVGPLGDLNCSWEPLGDLGAPSELHLQSQKYRSNKTQTVAVAAGRSWVAIPREQLTMSDKLLVWGTKAGQPLWPPVFVNLETQMKPNAPRLGPDVDFSEDDPLEATVHWAPPTWPSHKVLICQFHYRRCQEAAWTLLEPELKTIPLTPVEIQDLELATGYKVYGRCRMEKEEDLWGEWSPILSFQTPPSAPKDVWVSGNLCGTPGGEEPLLLWKAPGPCVQVSYKVWFWVGGRELSPEGITCCCSLIPSGAEWARVSAVNATSWEPLTNLSLVCLDSASAPRSVAVSSIAGSTELLVTWQPGPGEPLEHVVDWARDGDPLEKLNWVRLPPGNLSALLPGNFTVGVPYRITVTAVSASGLASASSVWGFREELAPLVGPTLWRLQDAPPGTPAIAWGEVPRHQLRGHLTHYTLCAQSGTSPSVCMNVSGNTQSVTLPDLPWGPCELWVTASTIAGQGPPGPILRLHLPDNTLRWK
modifications: extracellular domain
notes: IL-27 antagonist; WSX-1 polypeptide that lacks the intracellular and transmembrane domains
- inhibition of IL-27-induced expression of CXCL10 [7]: inhibited IL-27-induced expression of CXCL10

— US20130189262A1, “IL-27 Antagonists for Treating Inflammatory Diseases” (Five Prime Therapeutics, Inc., priority 2011, published 2013)
